Experimental findings from patent publication US20080194574A1, “Pyrazine Derivatives As Effective Compounds Against Infectious Diseases” (AXXIMA PHARMACEUTICALS AG, priority 2003, published 2008) are described below.

For one experiment, the target named is T1, viral kinase pUL-97 (Human cytomegalovirus, UniProt P16788).
T1 construct: The pUL-97 gene was cloned into a baculovirus vector; GST (glutathione S-transferase) (N); made in house; host or cells: Sf9 insect cells, baculovirus
T1 sequence (P16788 whole entry): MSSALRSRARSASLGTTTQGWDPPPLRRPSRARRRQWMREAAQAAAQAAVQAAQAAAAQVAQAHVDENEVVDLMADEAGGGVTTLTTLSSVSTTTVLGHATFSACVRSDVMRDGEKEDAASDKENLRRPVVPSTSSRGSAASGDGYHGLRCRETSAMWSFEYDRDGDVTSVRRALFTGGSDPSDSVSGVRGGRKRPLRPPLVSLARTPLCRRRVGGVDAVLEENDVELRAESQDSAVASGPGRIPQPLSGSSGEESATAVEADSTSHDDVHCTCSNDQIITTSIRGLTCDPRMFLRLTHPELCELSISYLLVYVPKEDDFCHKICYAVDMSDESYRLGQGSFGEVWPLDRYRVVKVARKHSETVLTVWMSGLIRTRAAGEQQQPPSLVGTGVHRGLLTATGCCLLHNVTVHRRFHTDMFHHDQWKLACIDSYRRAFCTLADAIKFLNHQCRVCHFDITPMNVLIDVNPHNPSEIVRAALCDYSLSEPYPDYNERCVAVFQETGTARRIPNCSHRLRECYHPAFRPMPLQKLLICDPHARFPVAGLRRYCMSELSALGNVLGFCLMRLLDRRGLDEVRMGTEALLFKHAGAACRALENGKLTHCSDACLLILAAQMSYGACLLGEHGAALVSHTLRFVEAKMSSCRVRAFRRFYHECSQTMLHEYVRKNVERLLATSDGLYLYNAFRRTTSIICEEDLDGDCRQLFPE
Nature of the experiment: UL97 kinase assay on Immobilon plate. The settings on record: inhibition of UL 97 kinase activity; class by IC50 / % inhibition at 10 μM or 100 μM; read-out: Activity Class [A, B, C]. The class given is biochemical. In a few lines:
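GST-pUL97 from baculovirus-infected Sf9 cells phosphorylated myelin basic protein with ATP (3 μM in the added assay buffer) and γ-[33P]ATP in Tris-HCl pH 7.5 buffer with MnCl2 and DTT. Reaction ran 1 h at 30 °C with graded compound concentrations and was stopped with EDTA. 33P incorporation was measured by scintillation after filter capture and phosphoric acid washes.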
`FC(F)(F)c1cccc(N2CCN(c3cncc(-c4ccccc4Oc4ccccc4)n3)CC2)c1` [compound 217, 6′-(2-Phenoxy-phenyl)-4-(3-trifluoromethyl-phenyl)-3,4,5,6-tetrahydro-2H-[1,2′]bipyrazinyl]: the IC50 lay in the range of 10 to 100 µM. In the case of `COc1ccc(-c2cncc(N3CCN(c4ccc(C(C)=O)cc4)CC3)n2)cc1F` [compound 206, 1-{4-[6′-(3-Fluoro-4-methoxy-phenyl)-2,3,5,6-tetrahydro-[1,2′]bipyrazinyl-4-yl]-phenyl}-ethanone], the IC50 was in the range of 1 to 10 µM. On the same count and under the same terms, then `COc1ccccc1N1CCN(c2cncc(-c3ccc(F)c(Cl)c3)n2)CC1` [compound 242, 6′-(3-Chloro-4-fluoro-phenyl)-4-(2-methoxy-phenyl)-3,4,5,6-tetrahydro-2H-[1,2′]bipyrazinyl], with 10 to 100 µM; and `CSc1ccc(-c2cncc(N3CCN(c4cccc(C)c4)C(C)C3)n2)cc1` (centres unmarked) [compound 301, 3-Methyl-6′-(4-methylsulfanyl-phenyl)-4-m-tolyl-3,4,5,6-tetrahydro-2H-[1,2′]bipyrazinyl], with 10 to 100 µM. Turning to `COc1cccc(N2CCN(c3cncc(-c4ccc5ccccc5c4)n3)CC2)c1` [compound 322, 4-(3-Methoxy-phenyl)-6′-naphthalen-2-yl-3,4,5,6-tetrahydro-2H-[1,2′]bipyrazinyl], the IC50 fell in the range of 1 to 10 µM.

Regarding `COc1ccc(N2CCN(c3cncc(-c4ccccc4C)n3)CC2)cc1OC` [compound 262, 4-(3,4-Dimethoxy-phenyl)-6′-o-tolyl-3,4,5,6-tetrahydro-2H-[1,2′]bipyrazinyl], the IC50 is 10 to 100 µM. Same read-out and setting: then `COc1ccc(N2CCN(c3cncc(-c4ccc(C#N)cc4)n3)CC2)cc1` [compound 293, 4-[4-(4-Methoxy-phenyl)-3,4,5,6-tetrahydro-2H-[1,2′]bipyrazinyl-6′-yl]-benzonitrile], with 1 to 10 µM; and `COc1ccc(N2CCN(c3cncc(-c4csc5ccccc45)n3)CC2)cc1OC` [compound 227, 6′-Benzo[b]thiophen-3-yl-4-(3,4-dimethoxy-phenyl)-3,4,5,6-tetrahydro-2H-[1,2′]bipyrazinyl], with 1 to 10 µM; and `CCOc1ccc(-c2cncc(N3CCN(c4ccncc4)CC3)n2)cc1` [compound 260, 6′-(4-Ethoxy-phenyl)-4-pyridin-4-yl-3,4,5,6-tetrahydro-2H-[1,2′]bipyrazinyl], with 1 to 10 µM. On the same count and under the same terms, then `FC(F)(F)c1ccc(N2CCN(c3cncc(-c4ccc5ccccc5c4)n3)CC2)cc1` [compound 352, 6′-Naphthalen-2-yl-4-(4-trifluoromethyl-phenyl)-3,4,5,6-tetrahydro-2H-[1,2′]bipyrazinyl], with 1 to 10 µM. `CCOc1ccc(-c2cncc(N3CCN(c4ccc(C(C)=O)cc4)CC3)n2)cc1` [compound 207, 1-{4-[6′-(4-Ethoxy-phenyl)-2,3,5,6-tetrahydro-[1,2′]bipyrazinyl-4-yl]-phenyl}-ethanone]: the IC50 was 10 to 100 µM. On the same count and under the same terms, then `COc1ccc(OC)c(-c2cncc(N3CCN(c4ccc(F)cc4)CC3)n2)c1` [compound 234, 6′-(2,5-Dimethoxy-phenyl)-4-(4-fluoro-phenyl)-3,4,5,6-tetrahydro-2H-[1,2′]bipyrazinyl], with 10 to 100 µM; and `c1ccc2c(-c3cncc(N4CCN(c5cnccn5)CC4)n3)csc2c1` [compound 332, 6-Benzo[b]thiophen-3-yl-2′,3′,5′,6′-tetrahydro-[2,1′;4′,2″]terpyrazine], with below 1 µM; and `CC(C)(C)c1ccc(-c2cncc(N3CCN(c4cccc(C(F)(F)F)c4)CC3)n2)cc1` [compound 253, 6′-(4-tert-Butyl-phenyl)-4-(3-trifluoromethyl-phenyl)-3,4,5,6-tetrahydro-2H-[1,2′]bipyrazinyl], with 10 to 100 µM.

For the molecule `CCOc1ccc(-c2cncc(N3CCN(c4ccc(C)cc4)CC3)n2)cc1` [compound 266, 6′-(4-Ethoxy-phenyl)-4-p-tolyl-3,4,5,6-tetrahydro-2H-[1,2′]bipyrazinyl], the IC50 fell in the range of 10 to 100 µM. On the same count and under the same terms, then `Cc1cccc(-c2cncc(N3CCN(c4ccccc4F)CC3)n2)c1C` [compound 250, 6′-(2,3-Dimethyl-phenyl)-4-(2-fluoro-phenyl)-3,4,5,6-tetrahydro-2H-[1,2′]bipyrazinyl], with 10 to 100 µM.

For the molecule `Cc1cccc(N2CCN(c3cncc(-c4ccc5ccccc5c4)n3)CC2C)c1` (centres unmarked) [compound 347, 3-Methyl-6′-naphthalen-2-yl-4-m-tolyl-3,4,5,6-tetrahydro-2H-[1,2′]bipyrazinyl], the IC50 is 10 to 100 µM.

The experiment is the same for the next values; noted with them: inhibition of UL 97 kinase activity; class by IC50 / % inhibition at 10 or 100 μM; read-out: Activity Class [A, B, C].
For the molecule `COc1ccc(C(C)C)cc1-c1cncc(N2CCN(c3ccncc3)CC2)n1` [compound 55, 6′-(5-Isopropyl-2-methoxy-phenyl)-4-pyridin-4-yl-3,4,5,6-tetrahydro-2H-[1,2′]bipyrazinyl], the IC50 was in the range of 10 to 100 µM. Same read-out and setting: then `c1coc(CNc2cncc(-c3cc4ccccc4o3)n2)c1` [compound 23, (6-Benzofuran-2-yl-pyrazin-2-yl)-furan-2-ylmethyl-amine], with 10 to 100 µM. The same measure, in the same setting: for `NC(=O)c1ccccc1-c1cncc(N2CCN(c3ccncc3)CC2)n1` [Comp. 70, 2-(4-Pyridin-4-yl-3,4,5,6-tetrahydro-2H-[1,2′]bipyrazinyl-6′-yl)-benzamide] the value was 10 to 100 µM; for `Cc1ccc(N2CCN(c3cncc(-c4ccccc4)n3)CC2)cc1` [compound 135, 6′-Phenyl-4-p-tolyl-3,4,5,6-tetrahydro-2H-[1,2′]bipyrazinyl], 10 to 100 µM. As to `NC(=O)c1ccc(-c2cncc(N3CCN(C(=O)c4ccco4)CC3)n2)cc1` [compound 34, 4-[4-(Furan-2-carbonyl)-3,4,5,6-tetrahydro-2H-[1,2′]bipyrazinyl-6′-yl]-benzamide], the IC50 was below 1 µM. On the same count and under the same terms, for `CC(=O)c1ccccc1-c1cncc(N2CCN(c3ccc(F)cc3F)CC2)n1` [compound 141, 1-{2-[4-(2,4-Difluoro-phenyl)-3,4,5,6-tetrahydro-2H-[1,2′]bipyrazinyl-6′-yl]-phenyl}-ethanone] the value was 1 to 10 µM; for `Fc1cc(-c2cncc(N3CCN(c4ccccc4)CC3)n2)ccc1-c1ccccc1` [compound 96, 6′-(2-Fluoro-biphenyl-4-yl)-4-phenyl-3,4,5,6-tetrahydro-2H-[1,2′]bipyrazinyl], 10 to 100 µM. For the molecule `Fc1ccccc1N1CCN(c2cncc(-c3cc(C(F)(F)F)cc(C(F)(F)F)c3)n2)CC1` [compound 196, 6′-(3,5-Bis-trifluoromethyl-phenyl)-4-(2-fluoro-phenyl)-3,4,5,6-tetrahydro-2H-[1,2′]bipyrazinyl], the IC50 was 10 to 100 µM.

Consider `Clc1cccc(-c2cncc(N3CCN(c4ccccn4)CC3)n2)c1` [compound 53, 6′-(3-Chloro-phenyl)-4-pyridin-2-yl-3,4,5,6-tetrahydro-2H-[1,2′]bipyrazinyl], for which the IC50 fell in the range of 1 to 10 µM. Still for that read-out and setting: then `CC(=O)c1cccc(-c2cncc(N3CCN(c4ccccc4F)CC3)n2)c1` [compound 115, 1-{3-[4-(2-Fluoro-phenyl)-3,4,5,6-tetrahydro-2H-[1,2′]bipyrazinyl-6′-yl]-phenyl}-ethanone], with 1 to 10 µM; and `CC(=O)c1ccc(-c2cncc(N3CCN(c4ccncc4)CC3)n2)cc1` [compound 133, 1-[4-(4-Pyridin-4-yl-3,4,5,6-tetrahydro-2H-[1,2′]bipyrazinyl-6′-yl)-phenyl]-ethanone], with 1 to 10 µM; and `Fc1ccccc1N1CCN(c2cncc(-c3ccsc3)n2)CC1` [compound 122, 4-(2-Fluoro-phenyl)-6′-thiophen-3-yl-3,4,5,6-tetrahydro-2H-[1,2′]bipyrazinyl], with 1 to 10 µM. Still for that read-out and setting: for `FC(F)(F)c1cc(-c2cncc(N3CCN(c4ccncc4)CC3)n2)cc(C(F)(F)F)c1` [compound 164, 6′-(3,5-Bis-trifluoromethyl-phenyl)-4-pyridin-4-yl-3,4,5,6-tetrahydro-2H-[1,2′]bipyrazinyl] the value was 10 to 100 µM.

As for `COc1ccc(-c2cncc(N3CCN(c4ccccc4OC)CC3)n2)cc1OC` [compound 107, 6′-(3,4-Dimethoxy-phenyl)-4-(2-methoxy-phenyl)-3,4,5,6-tetrahydro-2H-[1,2′]bipyrazinyl], the IC50 fell in the range of 1 to 10 µM. The same measure, in the same setting: then `COc1cccc(-c2cncc(N3CCN(c4cccc(Cl)c4)CC3)n2)c1` [compound 98, 4-(3-Chloro-phenyl)-6′-(3-methoxy-phenyl)-3,4,5,6-tetrahydro-2H-[1,2′]bipyrazinyl], with 1 to 10 µM. The same measure, in the same setting: for `Clc1cccc(N2CCN(c3cncc(-c4ccc5ccccc5c4)n3)CC2)c1` [compound 81, 4-(3-Chloro-phenyl)-6′-naphthalen-2-yl-3,4,5,6-tetrahydro-2H-[1,2′]bipyrazinyl] the value was 10 to 100 µM. On the same count and under the same terms, then `Cc1ccc(N2CCN(c3cncc(-c4ccc(C(F)(F)F)cc4)n3)CC2)cc1` [compound 178, 4-p-Tolyl-6′-(4-trifluoromethyl-phenyl)-3,4,5,6-tetrahydro-2H-[1,2′]bipyrazinyl], with 1 to 10 µM; and `NC(=O)c1ccc(-c2cncc(N3CCN(c4ccccn4)CC3)n2)cc1` [Comp. 15, 4-(4-Pyridin-2-yl-3,4,5,6-tetrahydro-2H-[1,2′]bipyrazinyl-6′-yl)-benzamide], with below 1 µM; and `Cc1cc(C)cc(-c2cncc(N3CCN(c4ccc(F)cc4)CC3)n2)c1` [compound 179, 6′-(3,5-Dimethyl-phenyl)-4-(4-fluoro-phenyl)-3,4,5,6-tetrahydro-2H-[1,2′]bipyrazinyl], with 10 to 100 µM. For the molecule `COc1ccc(OC)c(-c2cncc(N3CCN(c4ccc(F)cc4F)CC3)n2)c1` [compound 144, 4-(2,4-Difluoro-phenyl)-6′-(2,5-dimethoxy-phenyl)-3,4,5,6-tetrahydro-2H-[1,2′]bipyrazinyl], the IC50 is 10 to 100 µM. As to `COc1ccc(-c2cncc(N3CCN(c4cccc(Cl)c4)CC3)n2)cc1OC` [compound 100, 4-(3-Chloro-phenyl)-6′-(3,4-dimethoxy-phenyl)-3,4,5,6-tetrahydro-2H-[1,2′]bipyrazinyl], the IC50 lay in the range of 1 to 10 µM.
